pIC50: −log10 of the molar value.

One assay addresses hERG potassium channel (Homo sapiens, UniProt Q12809). As to the kind of experiment: hERG manual patch clamp, HEK293 cells (CR-CLE). Here is the method:
Each cell acted as its own control.
Temperature was measured using a thermistor probe in the recording chamber.
A general note: Block of hERG is tested as a sign of cardiac risk.

The next assay addresses hCav1.2/β2/α2δ channels (Homo sapiens, UniProt Q13936). As to the kind of experiment: CaV1.2 manual patch clamp, CHO cells (CR-CLE). The assay is classed as cell-based. The note with it: manual patch clamp, room temperature, read-out: CaV 1.2 IC50. An excerpt: Stocks were maintained in cryogenic storage. […] Each culture dish was identified by a notation of channel name, passage number, and date.
Rationale for Selection of Ion Channel and Expression Systems: Reduction of ICa,L is associated with action potential shortening in atrial fibrillation (Van Wagoner, et al., Circ Res 85:428-436 (1999)) while augmentation of ICa,L current may produce action potential prolongation (Ahmmed, et al., Circ Res 86:558-570 (2000)) and early after depolarizations (January, et al., Circ Res 62:563-571 (1988)). ICa.L is produced by the combination of calcium channel subunits encoded by CACNA1C (α1-subunit), CACNB2 (β2-subunit) and CACNA2D1 (α2δ-subunit) cDNAs.
• Organism: Cricetulus griseus • Tissue: Ovary; transfected with human CACNA1C • (α1-subunit), CACNB2 (β2-subunit), and • CACNA2D1 (α2δ-subunit) cDNAs • Morphology: Epithelial • Age/Stage: Adult • Source Strain: ATCC, Manassas, VA • Source Substrain: CR-CLE
CHO Cell Culture Procedures: CHO cells were stably co-transfected with human CACNA1C (α1-subunit), CACNB2 (β2-subunit), and CACNA2D1 (α2δ-subunit) cDNAs. Stable transfectants were selected by coexpression of the cDNAs with antibiotic resistance genes for blasticidin, hygromycin, G418, and zeocin. Selection pressure was maintained by including these antibiotics in the culture medium. Cells were cultured in Ham's F12 Medium supplemented with 10% fetal bovine serum, penicillin-streptomycin (100 units/mL), blasticidin (10 μg/mL), zeocin (400 μg/mL), G418 (250 μg/mL) and hygromycin (250 μg/mL). To avoid Ca^2+-induced toxicity, verapamil (3 μmol/L) was added to the cultured cells.
hCav1.2/β2/α2δ-CHO is a tetracycline-inducible cell line. To induce expression, tetracycline at a final concentration of 1 μg/mL was added to media lacking the selection antibiotics. Currents were recorded greater than 16 hours post-induction.
Treatment Groups: All experiments were performed at room temperature. Each cell acted as its own control.
Each concentration was tested in at least three cells (n≥3).
Positive Control Group: The positive control article nifedipine (Sigma-Aldrich) was tested in two cells (n=2) at 0.1 μM. Previous results have shown that nifedipine at 0.1 μM inhibits hCav1.2 current by approximately 90%.
Electrophysiological Procedures: Cells were superfused with vehicle control solution. Micropipette solution for whole cell patch clamp recordings was composed of (mM): Cs-methanesulfonate (MES), 130; TEA-Cl, 20, MgCl2, 1; EGTA, 10; Mg-ATP, 4; Tris-GTP, 0.3, phosphocreatine di-(Tris) salt, 14, creatine phosphokinase, 50 U/mL, and HEPES, 10; pH adjusted to 7.2 with N-methyl-D-glucamine or CsOH. Micropipette solution was prepared in batches, aliquoted, stored frozen, and a fresh aliquot thawed each day. […] Before digitization, current records were low-pass filtered at one-fifth of the sampling frequency.
Experimental Procedures: Onset and steady inhibition was evaluated at a test potential of 0 mV (150 ms duration), repeated at ten-second intervals from a holding potential of −40 mV. Peak current was measured during the step to 0 mV. Peak current was monitored until a new steady state was achieved. hCav1.2 current was monitored until a new steady state was achieved and a steady state was maintained for at least 20 s before applying test article or positive control article formulations. […]
Nonlinear least squares fits were solved with the Solver add-in for Excel 2003 or later (Microsoft, Redmond, WA) and the IC50 was calculated.
Background: In patch-clamp work, channel activity is measured electrically.

hERG potassium channel, sequence (Q12809 whole entry): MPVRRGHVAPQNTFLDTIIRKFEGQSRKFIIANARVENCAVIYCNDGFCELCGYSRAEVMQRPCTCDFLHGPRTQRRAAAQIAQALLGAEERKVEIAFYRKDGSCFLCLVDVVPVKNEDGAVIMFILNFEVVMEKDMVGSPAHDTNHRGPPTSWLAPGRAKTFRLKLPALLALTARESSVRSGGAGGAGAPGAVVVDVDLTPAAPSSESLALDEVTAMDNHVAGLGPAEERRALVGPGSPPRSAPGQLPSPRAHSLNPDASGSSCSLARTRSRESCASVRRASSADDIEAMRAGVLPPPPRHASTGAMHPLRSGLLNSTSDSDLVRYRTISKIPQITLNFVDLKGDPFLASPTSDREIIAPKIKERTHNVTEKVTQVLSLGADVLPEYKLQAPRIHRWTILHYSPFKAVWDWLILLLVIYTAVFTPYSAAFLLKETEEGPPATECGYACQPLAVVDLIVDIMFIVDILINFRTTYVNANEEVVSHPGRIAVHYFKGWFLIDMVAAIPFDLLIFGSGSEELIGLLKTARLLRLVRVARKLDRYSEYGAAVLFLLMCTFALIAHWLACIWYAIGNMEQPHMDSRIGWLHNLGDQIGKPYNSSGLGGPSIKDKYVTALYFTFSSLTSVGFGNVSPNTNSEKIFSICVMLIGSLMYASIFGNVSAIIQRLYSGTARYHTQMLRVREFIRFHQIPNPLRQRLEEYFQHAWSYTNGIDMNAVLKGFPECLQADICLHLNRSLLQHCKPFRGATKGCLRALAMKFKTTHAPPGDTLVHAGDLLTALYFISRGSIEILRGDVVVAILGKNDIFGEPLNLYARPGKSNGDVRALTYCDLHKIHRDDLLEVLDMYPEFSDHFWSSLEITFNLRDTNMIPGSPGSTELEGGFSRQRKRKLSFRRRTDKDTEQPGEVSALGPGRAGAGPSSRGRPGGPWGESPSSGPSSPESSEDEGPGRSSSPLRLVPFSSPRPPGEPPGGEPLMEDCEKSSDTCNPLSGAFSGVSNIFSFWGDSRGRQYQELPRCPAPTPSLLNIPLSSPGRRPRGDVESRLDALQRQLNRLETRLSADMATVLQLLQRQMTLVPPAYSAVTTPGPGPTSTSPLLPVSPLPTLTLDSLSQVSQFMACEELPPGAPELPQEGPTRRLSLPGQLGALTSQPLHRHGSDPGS
hCav1.2/β2/α2δ channels, sequence (Q13936 whole entry): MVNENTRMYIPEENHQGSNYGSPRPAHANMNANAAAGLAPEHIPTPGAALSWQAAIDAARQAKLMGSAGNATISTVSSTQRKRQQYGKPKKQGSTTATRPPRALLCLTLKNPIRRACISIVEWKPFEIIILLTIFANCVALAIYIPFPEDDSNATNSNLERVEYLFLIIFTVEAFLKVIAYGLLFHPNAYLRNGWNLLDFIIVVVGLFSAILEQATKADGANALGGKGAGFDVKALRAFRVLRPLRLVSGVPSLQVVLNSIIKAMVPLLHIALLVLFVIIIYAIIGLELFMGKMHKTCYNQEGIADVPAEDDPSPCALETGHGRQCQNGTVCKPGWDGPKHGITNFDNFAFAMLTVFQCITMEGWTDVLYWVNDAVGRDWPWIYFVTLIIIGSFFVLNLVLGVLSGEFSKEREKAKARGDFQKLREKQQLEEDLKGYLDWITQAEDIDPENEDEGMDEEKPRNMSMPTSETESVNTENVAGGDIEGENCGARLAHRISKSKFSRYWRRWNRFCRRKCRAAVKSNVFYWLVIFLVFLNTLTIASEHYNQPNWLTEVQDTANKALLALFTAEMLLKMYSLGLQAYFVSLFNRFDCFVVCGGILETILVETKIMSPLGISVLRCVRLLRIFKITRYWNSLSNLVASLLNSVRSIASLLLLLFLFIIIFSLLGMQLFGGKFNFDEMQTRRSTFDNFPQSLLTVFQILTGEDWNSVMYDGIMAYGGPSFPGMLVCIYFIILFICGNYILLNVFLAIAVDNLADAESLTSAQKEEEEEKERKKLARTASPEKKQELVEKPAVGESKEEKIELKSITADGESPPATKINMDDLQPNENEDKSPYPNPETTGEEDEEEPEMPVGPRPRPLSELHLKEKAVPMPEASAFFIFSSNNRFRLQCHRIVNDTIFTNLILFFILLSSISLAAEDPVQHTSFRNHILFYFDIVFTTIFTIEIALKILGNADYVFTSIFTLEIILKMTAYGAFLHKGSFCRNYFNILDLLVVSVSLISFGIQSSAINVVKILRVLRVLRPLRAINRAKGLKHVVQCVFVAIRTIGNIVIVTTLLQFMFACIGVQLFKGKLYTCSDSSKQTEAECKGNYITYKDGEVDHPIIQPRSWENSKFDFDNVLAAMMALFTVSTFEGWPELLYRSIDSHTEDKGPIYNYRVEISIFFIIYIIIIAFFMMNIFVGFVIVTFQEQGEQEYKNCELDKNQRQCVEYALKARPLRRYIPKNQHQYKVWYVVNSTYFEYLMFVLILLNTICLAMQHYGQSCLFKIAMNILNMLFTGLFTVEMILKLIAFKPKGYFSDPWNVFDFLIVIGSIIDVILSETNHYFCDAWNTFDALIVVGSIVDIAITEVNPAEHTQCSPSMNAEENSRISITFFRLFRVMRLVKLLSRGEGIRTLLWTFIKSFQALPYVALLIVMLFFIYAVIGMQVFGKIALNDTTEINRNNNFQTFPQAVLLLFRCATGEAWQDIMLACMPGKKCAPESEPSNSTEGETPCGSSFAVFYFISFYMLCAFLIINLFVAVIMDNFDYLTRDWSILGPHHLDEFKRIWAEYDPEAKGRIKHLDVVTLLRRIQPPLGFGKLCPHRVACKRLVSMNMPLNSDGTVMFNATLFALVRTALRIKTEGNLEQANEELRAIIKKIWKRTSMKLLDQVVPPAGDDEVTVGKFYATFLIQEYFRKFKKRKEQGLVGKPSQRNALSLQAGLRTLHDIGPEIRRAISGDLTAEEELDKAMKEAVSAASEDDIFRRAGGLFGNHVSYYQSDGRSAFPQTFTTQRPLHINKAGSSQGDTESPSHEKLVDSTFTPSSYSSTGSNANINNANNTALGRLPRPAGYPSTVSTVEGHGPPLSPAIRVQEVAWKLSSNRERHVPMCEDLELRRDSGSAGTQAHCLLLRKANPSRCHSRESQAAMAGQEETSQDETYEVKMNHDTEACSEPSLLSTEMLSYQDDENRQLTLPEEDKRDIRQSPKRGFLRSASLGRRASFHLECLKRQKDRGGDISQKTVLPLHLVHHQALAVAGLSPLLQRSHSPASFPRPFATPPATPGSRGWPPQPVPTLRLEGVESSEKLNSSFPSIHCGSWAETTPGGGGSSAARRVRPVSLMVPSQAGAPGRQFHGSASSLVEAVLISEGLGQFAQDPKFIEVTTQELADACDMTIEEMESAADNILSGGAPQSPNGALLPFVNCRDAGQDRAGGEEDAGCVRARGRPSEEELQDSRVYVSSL
hCav1.2/β2/α2δ channels, sequence (Q08289 whole entry partner): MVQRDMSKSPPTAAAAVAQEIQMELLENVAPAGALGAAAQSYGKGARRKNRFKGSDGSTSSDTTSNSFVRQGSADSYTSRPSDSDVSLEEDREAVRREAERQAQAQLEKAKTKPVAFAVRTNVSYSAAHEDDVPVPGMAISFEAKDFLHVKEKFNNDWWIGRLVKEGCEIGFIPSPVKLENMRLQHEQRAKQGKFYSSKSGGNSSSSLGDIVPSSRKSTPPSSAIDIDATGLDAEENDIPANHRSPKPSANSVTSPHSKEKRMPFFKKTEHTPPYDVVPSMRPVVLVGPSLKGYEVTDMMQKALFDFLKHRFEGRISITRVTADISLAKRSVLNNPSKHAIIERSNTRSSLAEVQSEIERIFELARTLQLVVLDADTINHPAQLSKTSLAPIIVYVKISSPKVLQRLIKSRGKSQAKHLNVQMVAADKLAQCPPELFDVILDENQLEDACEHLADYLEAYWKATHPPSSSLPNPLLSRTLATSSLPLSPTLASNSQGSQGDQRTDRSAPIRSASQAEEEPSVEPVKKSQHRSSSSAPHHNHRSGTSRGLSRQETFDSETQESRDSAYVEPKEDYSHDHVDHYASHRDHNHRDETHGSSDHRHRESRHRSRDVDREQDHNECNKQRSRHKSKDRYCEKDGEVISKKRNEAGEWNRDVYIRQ
hCav1.2/β2/α2δ channels, sequence (P54289 25-956 partner limits assumed): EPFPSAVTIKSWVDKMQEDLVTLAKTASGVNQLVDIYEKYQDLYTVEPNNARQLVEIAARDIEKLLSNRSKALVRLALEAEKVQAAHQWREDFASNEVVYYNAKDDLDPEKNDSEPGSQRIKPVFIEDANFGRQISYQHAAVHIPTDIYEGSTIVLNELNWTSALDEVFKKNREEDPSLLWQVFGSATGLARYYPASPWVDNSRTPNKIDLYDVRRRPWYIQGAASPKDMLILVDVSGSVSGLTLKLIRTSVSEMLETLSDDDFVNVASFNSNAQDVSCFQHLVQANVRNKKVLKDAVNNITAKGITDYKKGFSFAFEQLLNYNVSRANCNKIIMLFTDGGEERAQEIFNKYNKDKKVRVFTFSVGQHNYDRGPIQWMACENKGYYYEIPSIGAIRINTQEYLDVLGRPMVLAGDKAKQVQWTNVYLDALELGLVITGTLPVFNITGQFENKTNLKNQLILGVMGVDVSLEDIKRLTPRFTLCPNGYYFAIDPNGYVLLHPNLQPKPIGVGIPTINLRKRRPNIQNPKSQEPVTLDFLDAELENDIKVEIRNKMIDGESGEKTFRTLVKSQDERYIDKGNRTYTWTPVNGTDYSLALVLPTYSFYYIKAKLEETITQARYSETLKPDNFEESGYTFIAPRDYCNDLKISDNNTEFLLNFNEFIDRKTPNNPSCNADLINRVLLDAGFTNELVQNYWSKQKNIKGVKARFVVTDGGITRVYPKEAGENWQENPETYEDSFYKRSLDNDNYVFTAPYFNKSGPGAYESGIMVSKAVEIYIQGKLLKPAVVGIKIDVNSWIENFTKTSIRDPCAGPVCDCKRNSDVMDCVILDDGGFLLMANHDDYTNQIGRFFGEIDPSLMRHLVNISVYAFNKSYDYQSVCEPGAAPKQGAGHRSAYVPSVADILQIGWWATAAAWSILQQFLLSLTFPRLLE
hCav1.2/β2/α2δ channels, sequence (P54289 957-1103 partner limits assumed): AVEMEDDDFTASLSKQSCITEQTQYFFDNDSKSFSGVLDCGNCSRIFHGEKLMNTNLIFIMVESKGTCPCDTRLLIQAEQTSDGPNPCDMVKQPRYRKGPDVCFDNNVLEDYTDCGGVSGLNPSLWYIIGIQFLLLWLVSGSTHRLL

The pIC50 is −log10 of the IC50, conventionally taken in molar units. Regarding `CN1CCC(N(Cc2ccc(F)cc2F)C(=O)NCc2ccc(OC3CC3)cc2)CC1` [Example 17, 3-[(4-cyclopropoxyphenyl)methyl]-1-[(2,4-difluorophenyl)methyl]-1-(1-methylpiperidin-4-yl)urea], the pIC50 at hERG potassium channel is 5.74; on hCav1.2/β2/α2δ channels, 5.46.
With `CC(C)COc1ccc(CNC(=O)N(Cc2ccc(F)cc2F)C2CCN(C)CC2)cc1` [Example 3, 1-[(2,4-difluorophenyl)methyl]-1-(1-methylpiperidin-4-yl)-3-{[4-(2-methylpropoxy)phenyl]methyl}urea], the results for the pIC50 on hERG potassium channel and at hCav1.2/β2/α2δ channels were 6.30 and 5.85, respectively.
Take `CC(C)Oc1ccc(CNC(=O)N(Cc2ccc(F)cc2F)C2CCN(C)CC2)cc1` [Example 5, 1-[(2,4-difluorophenyl)methyl]-1-(1-methylpiperidin-4-yl)-3-{[4-(propan-2-yloxy)phenyl]methyl}urea]: the pIC50 against hERG potassium channel was 5.74; on hCav1.2/β2/α2δ channels, 4.95.

For the origin of these results see patent US12139477B2, “Compounds, salts thereof and methods for treatment of diseases” (ACADIA PHARMACEUTICALS INC., priority 2017, dated 2024).
